Results: PMC3353973 (PLoS ONE, 2012)
Numbered stars: 1 amine (or outer) side, 2 acyl side, 3 side chain; on linkers, the order of the positions; unused ones are H or OH. Bridge positions count the residues as written; N and C are the ends. I, II: the chains in the order shown. X1 = CC(C)CCC[C@@H](C)[C@H]1CC[C@H]2[C@@H]3CC=C4C[C@@H](OCCN(CCNC(=O)CCOCCOCCOCCOCCNC(=O)CCCN5C(=O)CC([*:1])C5=O)CCNC(=O)CCOCCOCCOCCOCCNC(=O)CCCN5C(=O)CC([*:2])C5=O)CC[C@]4(C)[C@H]3CC[C@]12C

Settings: hamster, in vivo

Substance: I: Ac-VALDPIDISIVLNKAKSDLEESKEWIRRSNGKLDSIGSGSGC-NH2 / II: Ac-VALDPIDISIVLNKAKSDLEESKEWIRRSNGKLDSIGSGSGC-NH2 (linker I:42-II:42 via X1) [HPIV-P4]
- Apparent toxicity in mock-infected animals: did not result in any apparent toxicity
